Results reported in patent US9149038B2, “4-amino-6-(heterocyclic)picolinates and 6-amino-2-(heterocyclic)pyrimidine-4-carboxylates and their use as herbicides” (Dow AgroSciences LLC, priority 2013, dated 2015).
Where two headings read alike, the source gives them in different places.

System: Direct Seeded Rice and weed species
Assay: Postemergence herbicidal activity in direct seeded rice, visual rating after 20-22 days and probit GR20/GR50/GR80/GR90 (Table 14)
Format: in vivo
Conditions: for pest or weed control at 17.5 g/ha / pest or weed control at 35 g/ha / pest or weed control at 70 g/ha: post-emergence, 504 h, postemergence; for pest or weed control at 17.5 g/ha: 17.5 g ai/ha; for pest or weed control at 35 g/ha: 35 g ai/ha; for pest or weed control at 70 g/ha: 70 g ai/ha
Source text: Herbicidal evaluations were made visually on a scale of 0 to 100 where 0 represents no activity and 100 represents complete plant death. Seeds or nutlets of the desired test plant species were planted in a soil matrix prepared by mixing a loam soil (43 percent silt, 19 percent clay, and 38 percent sand, with a pH of about 8.1 and an organic matter content of about 1.5 percent) and river sand in an 80 to 20 ratio. The soil matrix was contained in plastic pots with a surface area of 139.7 cm^2. When required to ensure good germination and healthy plants, a fungicide treatment and/or other chemical or physical treatment was applied. The plants were grown for 10-17 d in a greenhouse with an approximate 14-h photoperiod which was maintained at about 29° C. during the day and 26° C. during the night. Nutrients and water were added on a regular basis and supplemental lighting was provided with overhead metal halide 1000-Watt lamps as necessary. The plants were employed for testing when they reached the second or third true leaf stage. A weighed amount, determined by the highest rate to be tested, of each test compound was placed in 25 mL glass vials and dissolved in a volume of 97:3 v/v acetone-DMSO to obtain 12× stock solutions. […] The concentrated stock solutions were added to the spray solutions so that the final acetone and DMSO concentrations were 16.2% and 0.5%, respectively. Spray solutions were diluted to the appropriate final concentrations with the addition of 10 mL of an aqueous mixture of 1.5% (v/v) Agri-dex crop oil concentrate. The final spray solutions contained 1.25% (v/v) Agri-dex crop oil concentrate. Compound requirements are based upon a 12 mL application volume at a rate of 187 L/ha. Formulated compounds were applied to the plant material with an overhead Mandel track sprayer equipped with […] nozzles calibrated to deliver 187 L/ha over an application area of 0.503 square meters (m^2) at a spray height of 18 inches (43 cm) above average plant canopy height. Control plants were sprayed in the same manner with the solvent blank. The treated plants and control plants were placed in a greenhouse as described above and watered by sub-irrigation to prevent wash-off of the test compounds. After 20-22 days, the condition of the test plants, compared with that of the untreated plants, was determined visually and scored on a scale of 0 to 100 percent where 0 corresponds to no injury and 100 corresponds to complete kill and are presented as indicated in Table 4. By applying the well-accepted probit analysis as described by J. Berkson in Journal of the American Statistical Society, 48, 565 (1953) and by D. Finney in “Probit Analysis” Cambridge University Press (1952), herbicidal injury of a specific compound at various rates can be used to calculate GR20, GR50, GR80 and GR90 values, which are defined as growth reduction factors that correspond to the effective dose of herbicide required to provide plant growth reduction (GR) of 20 percent, 50 percent, 80 percent and 90 percent, respectively. Probit analysis was applied to data collected from multiple dose rates of individual compounds utilizing the procedures explained in the following examples. The data for some of the dose rates and analysis of all of the dose rates are captured in the following tables.

[1] = BRAPP (broadleaf signalgrass, Brachiaria platyphylla), read-out: Visual Growth Reduction (%) 21 Days After Application BRAPP
[2] = CYPDI (small-flower flatsedge, Cyperus difformis), read-out: Visual Growth Reduction (%) 21 Days After Application CYPDI
[3] = CYPES (yellow nutsedge, Cyperus esculentus), read-out: Visual Growth Reduction (%) 21 Days After Application CYPES
[4] = CYPIR (rice flatsedge, Cyperus iria), read-out: Visual Growth Reduction (%) 21 Days After Application CYPIR
[5] = DIGSA (large crabgrass, Digitaria sanguinalis), read-out: Visual Growth Reduction (%) 21 Days After Application DIGSA
[6] = ECHCG (barnyardgrass, Echinochloa crus-galli), read-out: Visual Growth Reduction (%) 21 Days After Application ECHCG
[7] = ECHCO (junglerice, Echinochloa colonum), read-out: Visual Growth Reduction (%) 21 Days After Application ECHCO
[8] = LEFCH (Chinese sprangletop, Leptochloa chinensis), read-out: Visual Growth Reduction (%) 21 Days After Application LEFCH
[9] = ORYSJ (Oryza sativa, rice crop), read-out: Visual Growth Reduction (%) 21 Days After Application ORYSJ
[10] = ORYSK (Oryza sativa, rice crop), read-out: Visual Growth Reduction (%) 21 Days After Application ORYSK
[11] = SCPJU (Japanese bulrush, Schoenoplectus juncoides Roxb.), read-out: Visual Growth Reduction (%) 21 Days After Application SCPJU
[12] = SEBEX (hemp sesbania, Sesbania exaltata), read-out: Visual Growth Reduction (%) 21 Days After Application SEBEX

## Nc1cc(-c2cc3c(cc2F)OC(F)(F)O3)nc(C(=O)O)c1Cl [Compound 42]
BRAPP (Brachiaria platyphylla), probit analysis, dose for 50 percent growth reduction
  GR50 BRAPP: 0.004 g ai/ha
BRAPP (Brachiaria platyphylla), probit analysis, dose for 80 percent growth reduction
  GR80 BRAPP: 0.2 g ai/ha
BRAPP (Brachiaria platyphylla), probit analysis, dose for 90 percent growth reduction
  GR90 BRAPP: 1 g ai/ha
CYPDI (Cyperus difformis), probit analysis, dose for 50 percent growth reduction
  GR50 CYPDI: 0.004 g ai/ha
CYPDI (Cyperus difformis), probit analysis, dose for 80 percent growth reduction
  GR80 CYPDI: 0.2 g ai/ha
CYPDI (Cyperus difformis), probit analysis, dose for 90 percent growth reduction
  GR90 CYPDI: 1 g ai/ha
CYPES (Cyperus esculentus), probit analysis, dose for 50 percent growth reduction
  GR50 CYPES: 0.4 g ai/ha
CYPES (Cyperus esculentus), probit analysis, dose for 80 percent growth reduction
  GR80 CYPES: 2 g ai/ha
CYPES (Cyperus esculentus), probit analysis, dose for 90 percent growth reduction
  GR90 CYPES: 5 g ai/ha
CYPIR (Cyperus iria), probit analysis, dose for 50 percent growth reduction
  GR50 CYPIR: 3 g ai/ha
CYPIR (Cyperus iria), probit analysis, dose for 80 percent growth reduction
  GR80 CYPIR: 5 g ai/ha
CYPIR (Cyperus iria), probit analysis, dose for 90 percent growth reduction
  GR90 CYPIR: 6 g ai/ha
DIGSA (Digitaria sanguinalis), probit analysis, dose for 50 percent growth reduction
  GR50 DIGSA: 0.004 g ai/ha
DIGSA (Digitaria sanguinalis), probit analysis, dose for 80 percent growth reduction
  GR80 DIGSA: 0.158 g ai/ha
DIGSA (Digitaria sanguinalis), probit analysis, dose for 90 percent growth reduction
  GR90 DIGSA: 1 g ai/ha
ECHCG (Echinochloa crus-galli), probit analysis, dose for 50 percent growth reduction
  GR50 ECHCG: 0.0001 g ai/ha
ECHCG (Echinochloa crus-galli), probit analysis, dose for 80 percent growth reduction
  GR80 ECHCG: 0.0001 g ai/ha
ECHCG (Echinochloa crus-galli), probit analysis, dose for 90 percent growth reduction
  GR90 ECHCG: 0.0001 g ai/ha
ECHCO (Echinochloa colonum), probit analysis, dose for 50 percent growth reduction
  GR50 ECHCO: 0.00015 g ai/ha
ECHCO (Echinochloa colonum), probit analysis, dose for 80 percent growth reduction
  GR80 ECHCO: 0.0207 g ai/ha
ECHCO (Echinochloa colonum), probit analysis, dose for 90 percent growth reduction
  GR90 ECHCO: 0.268 g ai/ha
LEFCH (Leptochloa chinensis), probit analysis, dose for 50 percent growth reduction
  GR50 LEFCH: 4 g ai/ha
LEFCH (Leptochloa chinensis), probit analysis, dose for 80 percent growth reduction
  GR80 LEFCH: 8 g ai/ha
LEFCH (Leptochloa chinensis), probit analysis, dose for 90 percent growth reduction
  GR90 LEFCH: 13 g ai/ha
ORYSJ (Oryza sativa, rice crop), probit analysis, dose for 20 percent growth reduction
  GR20 ORYSJ: 1 g ai/ha
ORYSK (Oryza sativa, rice crop), probit analysis, dose for 20 percent growth reduction
  GR20 ORYSK: 1 g ai/ha
SCPJU (Schoenoplectus juncoides Roxb.), probit analysis, dose for 50 percent growth reduction
  GR50 SCPJU: 0.0001 g ai/ha
SCPJU (Schoenoplectus juncoides Roxb.), probit analysis, dose for 80 percent growth reduction
  GR80 SCPJU: 0.0001 g ai/ha
SCPJU (Schoenoplectus juncoides Roxb.), probit analysis, dose for 90 percent growth reduction
  GR90 SCPJU: 0.0001 g ai/ha
SEBEX (Sesbania exaltata), probit analysis, dose for 50 percent growth reduction
  GR50 SEBEX: 2 g ai/ha
SEBEX (Sesbania exaltata), probit analysis, dose for 80 percent growth reduction
  GR80 SEBEX: 5 g ai/ha
SEBEX (Sesbania exaltata), probit analysis, dose for 90 percent growth reduction
  GR90 SEBEX: 9 g ai/ha
[1]
  pest or weed control at 17.5 g/ha: 95 to 100%
  pest or weed control at 35 g/ha: 95 to 100%
  pest or weed control at 70 g/ha: 95 to 100%
[2]
  pest or weed control at 17.5 g/ha: 95 to 100%
  pest or weed control at 35 g/ha: 95 to 100%
  pest or weed control at 70 g/ha: 95 to 100%
[3]
  pest or weed control at 17.5 g/ha: 95 to 100%
  pest or weed control at 35 g/ha: 95 to 100%
  pest or weed control at 70 g/ha: 95 to 100%
[4]
  pest or weed control at 17.5 g/ha: 95 to 100%
  pest or weed control at 35 g/ha: 95 to 100%
  pest or weed control at 70 g/ha: 95 to 100%
[5]
  pest or weed control at 17.5 g/ha: 95 to 100%
  pest or weed control at 35 g/ha: 95 to 100%
  pest or weed control at 70 g/ha: 95 to 100%
[6]
  pest or weed control at 17.5 g/ha: 95 to 100%
  pest or weed control at 35 g/ha: 95 to 100%
  pest or weed control at 70 g/ha: 95 to 100%
[7]
  pest or weed control at 17.5 g/ha: 95 to 100%
  pest or weed control at 35 g/ha: 95 to 100%
  pest or weed control at 70 g/ha: 95 to 100%
[8]
  pest or weed control at 17.5 g/ha: 95 to 100%
  pest or weed control at 35 g/ha: 95 to 100%
  pest or weed control at 70 g/ha: 95 to 100%
[9]
  pest or weed control at 17.5 g/ha: 85 to 94%
  pest or weed control at 35 g/ha: 95 to 100%
  pest or weed control at 70 g/ha: 95 to 100%
[10]
  pest or weed control at 17.5 g/ha: 60 to 74%
  pest or weed control at 35 g/ha: 75 to 84%
  pest or weed control at 70 g/ha: 75 to 84%
[11]
  pest or weed control at 17.5 g/ha: 95 to 100%
  pest or weed control at 35 g/ha: 95 to 100%
  pest or weed control at 70 g/ha: 95 to 100%
[12]
  pest or weed control at 17.5 g/ha: 95 to 100%
  pest or weed control at 35 g/ha: 95 to 100%
  pest or weed control at 70 g/ha: 95 to 100%
